Measured values as given in PMC4923153, “Protection of Primary Dopaminergic Midbrain Neurons by GPR139 Agonists Supports Different Mechanisms of MPP^+ and Rotenone Toxicity” (Frontiers in Cellular Neuroscience, 2016).

Key:
[1] = test system: primary DA midbrain neurons; test: Protection of primary DA midbrain neurons against MPP+ toxicity (TH-positive neuron count); format: cell-based, mice; details: 1 μM MPP+ 24 h
Procedure: Experiments were conducted in accordance with the ethical guidelines of H. Lundbeck A/S and the Danish legislation of animal use for scientific procedures. Cell culture was basically performed as described (Nagel et al., [2008]), with few modifications. Briefly, the mesencephalon floor was dissected from embryonic day (E) 13 mice, tissue pieces collected in HBBS, transferred to 0.1% trypsin, 0.05% DNAse (Sigma-Aldrich DN25–1G) and incubated at 37°C in a humidified atmosphere with 5% CO2 for 20 min; washed in DNAse, homogenized and centrifuged at 200× g, resuspended in medium (DMEM (Gibco 41965–039), 10% FCS, 1% P/S (Gibco, 15140–122), l.5% HEPES (Gibco, 15630–056), 1% Sodium Pyruvate (Gibco, 11360–039)) and plated on poly-L-lysine coated 96-well dishes. The medium was switched to neurobasal medium after 90 min (neurobasal (Gibco 21103–049) with 1% P/S, 2% B27 (Gibco, 17504–044), 1.25% 0.5 mM L-glutamine (Gibco, 25030–024)). After 6 days in vitro (DIV), cultures were treated with 1 μM of three different GPR139 agonists and in some experiments, concomitantly, with 10 μM of the antagonist for1 h, before exposing them to 0–1 μM MPP^+, 0–50 μM 6-OHDA or 0–100 nM rotenone for 24 h. For the MPP^+ treated cultures, it was also tested whether the effect of the GPR139 agonists could be blocked by concomitantly applying 10 μM GPR139 antagonist (IC50 3 μM). Subsequently, cells were fixed in 4% PFA/PBS for 10 min, washed with PBS, incubated in 0.5% BSA/0.1% Triton-X/5% porcine serum for 20 min, and incubated for 24 h in rabbit anti-tyrosine hydroxylase antibodies (1:1000 in PBS, Millipore AB152); washed 2 × 5 min in PBS. Secondary antibodies (Alexa 488 rabbit) were applied 1:200 in PBS with 0.2 μg/ml Hoechst dye for 1 h and washed 2 × 5 min in PBS. One drop of DAKO fluorescent mounting medium were applied into each well. Plates were stored at 4°C until tyrosine-hydroxylase-positive (TH-positive) neurons were counted using a Thermo Scientific Cellomics® ArrayScan® VTI HCS Reader. Results were normalized against control condition and compared. Experiments were only included in the evaluation if at least 30% cell death was induced at the highest toxin concentration compared to non-treated control wells. To ensure that only healthy primary cultures were assessed, we furthermore excluded experiments with total cell counts below Mean minus standard deviation (SD) of the summarized experiments. […]
To examine whether GPR139 agonists protect against toxin-induced DA cell death, we first treated cultured DA midbrain neurons with the GPR139 agonists and MPP^+ . Subsequently, we determined survival of TH-positive neurons.
Figure 8 Three different GPR139 surrogate agonists protect primary dopaminergic (DA) midbrain neurons against 1-methyl-4-phenyl-pyridinium ionMPP^+ toxicity. […] TH-positive neurons were counted and normalized to numbers under control conditions. […] Each data point is calculated from 12 (0 μM and 1 μM MPP^+ concentrations); 4 (0.125 μM); 7 (0.25 μM); or 8 (0.5 μM) independent measurements.
Primary midbrain cultures were pretreated with the indicated amount of GPR139 agonist compound 3 and with either vehicle ( [drawing 5] ), or 1 μM MPP^+ ( [drawing 6] ); or MPP^+ with 10 μM of the antagonist compound 4 ( [drawing 7] ), or with the antagonist compound 4 alone ( [drawing 8] ). The number of TH-positive neurons was determined 24 h later and normalized to control conditions. […]

[2] = test system: primary DA midbrain neurons; test: Protection of primary DA midbrain neurons against 6-OHDA toxicity (TH-positive neuron count); format: cell-based, mice; details: 1 μM agonist 1 h, 0-50 μM 6-OHDA 24 h
Procedure: (§1) Experiments were conducted in accordance with the ethical guidelines of H. Lundbeck A/S and the Danish legislation of animal use for scientific procedures. Cell culture was basically performed as described (Nagel et al., [2008]), with few modifications. […] Plates were stored at 4°C until tyrosine-hydroxylase-positive (TH-positive) neurons were counted using a Thermo Scientific Cellomics® ArrayScan® VTI HCS Reader. […] To ensure that only healthy primary cultures were assessed, we furthermore excluded experiments with total cell counts below Mean minus standard deviation (SD) of the summarized experiments. […]
Neuronal midbrain cultures were pretreated with 1 μM of either one of the agonists compound 1 ( [drawing 9] ), compound 2 ( [drawing 10] ), or compound 3 ( [drawing 11] ), or vehicle ( [drawing 12] ) for 1 h, followed by treatment with the indicated concentrations of 6-hydroxydopamine (6-OHDA) for 24 h. TH-positive neurons were counted and normalized to control numbers.

[3] = test system: primary DA midbrain neurons; test: Protection of primary DA midbrain neurons against rotenone toxicity (TH-positive neuron count); format: cell-based, mice; details: 1 μM agonist 1 h, 0-100 nM rotenone 24 h, n = 4
Procedure: as §1
Mesencephalic cultures were treated with 1 μM of either one of the GPR139 agonists compound 1 ( [drawing 13] ), compound 2 ( [drawing 14] ), or compound 3 ( [drawing 15] ), or vehicle ( [drawing 16] ) for 1 h before exposing them to 0–100 nM of rotenone. […] TH-positive neurons were counted and normalized to control numbers (100%).

DAT = DAT (Homo sapiens, UniProt Q01959); test: Inhibition of binding to the DAT (cross reactivity); details: concentration not given
Procedure: (§2) None of the compounds were useful in vivo tools due to their unfavorable ADME properties including low whole brain exposure and brain/plasma ratio (Shi et al., [2011]). Cross reactivity with the DAT or the norepinephrine transporter was determined as described (Shi et al., [2011]).
(§3) As both 6-OHDA and MPP^+ are taken up via the DAT, it was not likely that the agonists mediated their protection against MPP^+ by merely blocking the DAT. However, to further exclude the possibility that the protection against MPP^+ by the agonist compound 3 is mediated by blocking MPP^+ uptake, rather than signaling through GPR139, DA and noradrenaline uptake in the presence of the agonist was tested. […] Ten micrometres (10 μM) compound 1 inhibited binding to the DAT or the norepinephrine transporter by 4% or −8%, respectively (Shi et al., [2011]) compound 2 inhibited binding to the DAT or the norepinephrine transporter 2% or −4%, respectively.

[4] = target: norepinephrine transporter (Homo sapiens, UniProt P23975); test: Inhibition of binding to the norepinephrine transporter (cross reactivity); details: concentration not given
Procedure: as §2, §3

Sequence of DAT (Q01959 whole entry, species assumed): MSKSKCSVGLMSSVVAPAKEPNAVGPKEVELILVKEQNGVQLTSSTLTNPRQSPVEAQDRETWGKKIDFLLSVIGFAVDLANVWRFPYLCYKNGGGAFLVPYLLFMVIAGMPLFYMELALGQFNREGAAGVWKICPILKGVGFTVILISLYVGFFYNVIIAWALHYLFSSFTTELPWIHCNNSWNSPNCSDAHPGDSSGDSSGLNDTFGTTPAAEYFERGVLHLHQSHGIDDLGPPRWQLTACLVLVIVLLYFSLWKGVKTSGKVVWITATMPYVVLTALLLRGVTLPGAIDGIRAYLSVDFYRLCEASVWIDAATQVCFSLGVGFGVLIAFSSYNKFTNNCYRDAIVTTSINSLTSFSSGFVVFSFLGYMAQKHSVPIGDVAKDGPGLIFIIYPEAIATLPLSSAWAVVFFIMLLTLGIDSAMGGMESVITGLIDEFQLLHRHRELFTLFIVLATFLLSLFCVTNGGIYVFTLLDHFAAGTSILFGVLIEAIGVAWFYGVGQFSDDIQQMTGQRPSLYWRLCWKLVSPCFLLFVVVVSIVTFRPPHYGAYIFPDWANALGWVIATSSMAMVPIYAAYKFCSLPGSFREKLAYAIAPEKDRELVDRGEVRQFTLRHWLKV
Sequence of norepinephrine transporter (P23975 whole entry, species assumed): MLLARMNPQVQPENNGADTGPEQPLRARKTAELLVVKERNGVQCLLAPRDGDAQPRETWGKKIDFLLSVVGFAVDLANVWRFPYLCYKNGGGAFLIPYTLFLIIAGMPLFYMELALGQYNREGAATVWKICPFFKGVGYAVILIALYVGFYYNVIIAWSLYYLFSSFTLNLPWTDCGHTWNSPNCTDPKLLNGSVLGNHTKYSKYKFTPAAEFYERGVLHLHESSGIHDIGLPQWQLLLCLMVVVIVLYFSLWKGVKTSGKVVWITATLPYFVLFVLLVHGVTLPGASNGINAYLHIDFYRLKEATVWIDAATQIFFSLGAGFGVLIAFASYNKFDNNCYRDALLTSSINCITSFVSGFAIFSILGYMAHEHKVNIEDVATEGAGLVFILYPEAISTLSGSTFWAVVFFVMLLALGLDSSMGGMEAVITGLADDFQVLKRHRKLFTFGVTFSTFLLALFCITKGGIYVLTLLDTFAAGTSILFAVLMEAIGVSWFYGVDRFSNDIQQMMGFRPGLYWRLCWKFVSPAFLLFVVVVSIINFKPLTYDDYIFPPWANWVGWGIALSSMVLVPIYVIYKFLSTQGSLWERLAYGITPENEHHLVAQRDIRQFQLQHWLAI

**Q.** Which “protection against MPP+ toxicity” value ([1]; 1 μM agonist 1 h, p ≤ 0.05 vs vehicle) does the source give for CN(C)C1CCN(C(=O)CNC(=O)Cc2cccc3ccccc23)C1 (stereo not drawn) [compound 2, N-[2-(3-Dimethylamino-pyrrolidin-1-yl)-2-oxo-ethyl]-2-Naphthalen-1-yl-acetamide] here?
**A.** significant

**Q.** What about the “cells killed by 1 μM MPP+ that were rescued” value ([1]; 1 μM compound pre-incubation 1 h, TH-positive neurons) of the same compound?
**A.** 40.5%

**Q.** And the “protection against 6-OHDA toxicity” value [2]?
**A.** do not protect

**Q.** What about the “protection against rotenone toxicity” value [3] of the same compound?
**A.** do not protect

**Q.** And the “inhibition of binding to the DAT” value (DAT)?
**A.** 2%

**Q.** What about the “inhibition of binding to the norepinephrine transporter” value [4] of the same compound?
**A.** −4%
